Where “and” joins values, the source holds several entries; their conditions need not be identical. Equal values may be shown once. No end group written: not given here.
What was measured:
[1] = system: white blood cells in peripheral blood; test: White blood cell count in peripheral blood after single subcutaneous injection; format: in vivo, C57Bl6 mice; settings: for White Blood Cell counts: Cell Count: individual mice
Method: C57Bl6 male mice, from 8 weeks to 4 month of age, from Harlan were used. Mice received subcutaneous injections of saline, Compound X (50 μg/kg) or Compound X (250 μg/kg). After 1 and 4 hours, mice were anesthetized and blood was collected through the orbital sinus with heparinized capillary tubes. 20 μl of blood was removed from each tube for WBC counts;
In this experiment, C57Bl6 mice received subcutaneous injections of PBS, Compound X (250 μg/kg) or AMD3100 (5 mg/kg). After 1 hr blood was collected through the orbital sinus with heparinized capillary tubes. Blood from each group was pooled, counted and mononuclear cells were isolated by density gradient separation. Cells were washed, counted and plated at 100,000 per dish (5 dishes/group) for CFU-GEMM and CFU-GM colonies. CFU-GEMM colonies were scored on day 14, while CFU-GM colonies on day 7 after plating in MC3434 (Stem cell Technology).

[2] = system: CFU-GEMM / CFU-GM progenitor cells; test: CFU colony assay of peripheral blood after 4 daily subcutaneous injections; format: in vivo, C57Bl/6 male mice; settings: for CFU-GEMM number, AVG / CFU-GEMM number: 1 hr after injection; for CFU-GEMM number: individual dishes
Method: This example is based on a protocol for a 4-day course of once-daily Compound X injections into C57Bl/6 male mice similar to G-CSF. Two effective dose levels of Compound X were found previously to mobilize HSC 1 hr after single injection and were selected for this experiment. Four-month old C57Bl/6 male mice (Jackson Laboratories) were subcutaneously injected with 0.9% saline, 125 μg/kg Compound X or 250 μg/kg Compound X on days 1, 2, 3 and 4 as described in Table 4. Each day, one-hour post injections, peripheral blood from 3 mice per group was harvested from the orbital plexus into EDTA-containing tubes. On day 4, a femur and spleen were also removed from mice to assess by FACS whether any toxicity aroused from repeated injections of Compound X.
As in the previous example to determine mobilization of colony-forming cells out of the bone marrow, mononuclear cells from peripheral blood were plated into MethoCult 3434 media (Stem Cell Technologies). Briefly, after white blood cell counting, the remaining peripheral blood was diluted (1:1, v/v) with 0.9% saline (APP Pharmaceutical) and layered (2:1, v/v) onto 1-Step™1.077 A (Accurate Chemicals) in 15-ml centrifuge tubes. Cells were centrifuged at 600×g for 20 min at room temperature. The mononuclear cells were harvested from the interface between the plasma layer and the 1-Step™ A solution using a 1-ml syringe and blunt-end needle. The cells were transferred to 15-ml centrifuge tubes and washed twice in 1×PBS. Cells were resuspended in 1 ml of IMDM and cell counts were obtained using the Coulter counter. Cells were placed into 35-mm Petri dishes at 200,000 cells per dish with 5 dishes per group. Cells incubated for 10 days in a 37° C. and 5% CO2 humidified incubator. CFU colonies were then scored using an inverted microscope—CFU-GM detected on day 7 and CFU-GEMM—on day 10. Data presented in Tables 7, 8 and 9, FIGS. 3 and 4.

[3] = system: white blood cells in peripheral blood; test: White blood cell count after 4 daily injections of G-CSF and Compound X; format: in vivo, mice; settings: 5 μg/mouse each agent s.c. daily for 4 days, pooled blood
Method: Compound X and Neupogen (rG-CSF Amgen, lot# P043601) were diluted in PBS. Mice received subcutaneous injections of PBS, Compound X (5 μg/mouse), G-CSF (5 μg/mouse) or Compound X (5 μg/mouse)+G-CSF (5 μg/mouse) for four consecutive days. On the last day of injections, 1 hour post injections, blood was collected through the orbital sinus with heparinized capillary tubes. Blood was pooled from 3 mice/group and white blood cell counts were obtained. Mononuclear cells were isolated by density gradient separation from pooled blood. Cells were washed, counted and plated at 100,000 per dish (5 dishes/group) for CFU-mix and CFU-GM colonies. Blood was also collected and processed on day 8 for colony assay. Results are shown in Tables 10, 11, and 12 and in FIG. 5.

HSC and HPC = test: CFU-GM / CFU-GEMM colony assay after 4 daily injections of G-CSF and Compound X; format: in vivo, mice; settings: for CFU-GEMM numbers, MEAN / CFU-GM numbers, MEAN / CFU-GEMM numbers / CFU-GM numbers: 5 μg/mouse each agent s.c. daily for 4 days; for CFU-GEMM numbers / CFU-GM numbers: individual dishes; for Fold increase in number of CFU-GM / Fold increase in number of CFU-Mix (CFU-GEMM): multiple injections, 5 μg/mouse each agent
Method: Compound X and Neupogen (rG-CSF Amgen, lot# P043601) were diluted in PBS. Mice received subcutaneous injections of PBS, Compound X (5 μg/mouse), G-CSF (5 μg/mouse) or Compound X (5 μg/mouse)+G-CSF (5 μg/mouse) for four consecutive days. […] Mononuclear cells were isolated by density gradient separation from pooled blood. […] Blood was also collected and processed on day 8 for colony assay. Results are shown in Tables 10, 11, and 12 and in FIG. 5.

[4] = system: full-thickness cutaneous wounds; test: Excisional wound healing model in db/db mice; format: in vivo; settings: i.v. 5 mg/kg daily for 4 days, Day 4

FPHFDLSHGSAQV [Compound X, tridecapeptide that acts on stem cells]
White blood cell count: Cell Count ([1]; s.c. 250 μg/kg, 1 hr, pooled blood): 7.2e+06 mL⁻¹ | White Blood Cell counts: Cell Count ([1]; single s.c. 50 μg/kg, 1 hour): 1.41e+07 mL⁻¹ and 7.8e+06 mL⁻¹ and 9.6e+06 mL⁻¹ | White Blood Cell counts: Cell Count ([1]; single s.c. 50 μg/kg, 4 hours): 2.22e+07 mL⁻¹ and 6.9e+06 mL⁻¹ and 1e+07 mL⁻¹ | White Blood Cell counts: Cell Count ([1]; single s.c. 250 μg/kg, 1 hour): 9.6e+06 mL⁻¹ and 9.2e+06 mL⁻¹ and 1.79e+07 mL⁻¹ | White Blood Cell counts: Cell Count ([1]; single s.c. 250 μg/kg, 4 hours): 1.67e+07 mL⁻¹ and 1.46e+07 mL⁻¹ and 1.03e+07 mL⁻¹ | egress of cells from bone marrow into peripheral blood (white blood cell count) ([1]; single s.c. 50 or 250 μg/kg): did not cause massive egress of cells | CFU-GEMM number, AVG ([2]; 125 μg/kg s.c. daily, Day 1): 2.4 per 100000 mononuclear cells | CFU-GEMM number ([2]; 125 μg/kg s.c. daily, Day 1): 2 per 100000 mononuclear cells (4×) and 4 per 100000 mononuclear cells | CFU-GEMM number, AVG ([2]; 125 μg/kg s.c. daily, Day 2): 2.8 per 100000 mononuclear cells | CFU-GEMM number ([2]; 125 μg/kg s.c. daily, Day 2): 5 per 100000 mononuclear cells and 3 per 100000 mononuclear cells (2×) and 1 per 100000 mononuclear cells and 2 per 100000 mononuclear cells | CFU-GEMM number, AVG ([2]; 125 μg/kg s.c. daily, Day 3): 0.4 per 100000 mononuclear cells | CFU-GEMM number ([2]; 125 μg/kg s.c. daily, Day 3): 1 per 100000 mononuclear cells (2×) and 0 per 100000 mononuclear cells (3×) | CFU-GEMM number, AVG ([2]; 125 μg/kg s.c. daily, Day 4): 0.8 per 100000 mononuclear cells | CFU-GEMM number ([2]; 125 μg/kg s.c. daily, Day 4): 0 per 100000 mononuclear cells (2×) and 2 per 100000 mononuclear cells and 1 per 100000 mononuclear cells (2×) | increase in multilineage CFU-GEMM colonies vs saline ([2]; 250 μg/kg over 4 days, all days): ≥ 2 fold | CFU-GEMM number, AVG ([2]; 250 μg/kg s.c. daily, Day 1): 2.6 per 100000 mononuclear cells | CFU-GEMM number ([2]; 250 μg/kg s.c. daily, Day 1): 4 per 100000 mononuclear cells (2×) and 1 per 100000 mononuclear cells and 2 per 100000 mononuclear cells (2×) | CFU-GEMM number, AVG ([2]; 250 μg/kg s.c. daily, Day 2): 3.6 per 100000 mononuclear cells | CFU-GEMM number ([2]; 250 μg/kg s.c. daily, Day 2): 2 per 100000 mononuclear cells and 6 per 100000 mononuclear cells (2×) and 3 per 100000 mononuclear cells and 1 per 100000 mononuclear cells | CFU-GEMM number, AVG ([2]; 250 μg/kg s.c. daily, Day 3): 2.8 per 100000 mononuclear cells | CFU-GEMM number ([2]; 250 μg/kg s.c. daily, Day 3): 2 per 100000 mononuclear cells (2×) and 4 per 100000 mononuclear cells and 3 per 100000 mononuclear cells (2×) | CFU-GEMM number, AVG ([2]; 250 μg/kg s.c. daily, Day 4): 4 per 100000 mononuclear cells | CFU-GEMM number ([2]; 250 μg/kg s.c. daily, Day 4): 4 per 100000 mononuclear cells (3×) and 3 per 100000 mononuclear cells and 5 per 100000 mononuclear cells | increase in CFU-GEMM vs saline ([2]; 250 μg/kg, day 3): 4.7 fold | mobilization of granulocytic and macrophage precursors CFU-GM ([2]; s.c. daily for 4 days): did not affect mobilization | White Blood Cell counts: Cell Count ([3]; Day 4, 1 hour post injection): 7.3 ×10^6 | White Blood Cell counts: Cell Count ([3]; Day 8): 6.1 ×10^6 | CFU-GEMM numbers, MEAN (HSC and HPC; Day 4): 2.4 per 100000 mononuclear cells | CFU-GM numbers, MEAN (HSC and HPC; Day 4): 9.6 per 100000 mononuclear cells | CFU-GEMM numbers (HSC and HPC; Day 4): 3 per 100000 mononuclear cells (2×) and 0 per 100000 mononuclear cells and 4 per 100000 mononuclear cells and 2 per 100000 mononuclear cells | CFU-GM numbers (HSC and HPC; Day 4): 7 per 100000 mononuclear cells and 6 per 100000 mononuclear cells and 13 per 100000 mononuclear cells and 11 per 100000 mononuclear cells (2×) | CFU-GEMM numbers, MEAN (HSC and HPC; Day 8): 0.6 per 100000 mononuclear cells | CFU-GM numbers, MEAN (HSC and HPC; Day 8): 0.6 per 100000 mononuclear cells | CFU-GEMM numbers (HSC and HPC; Day 8): 1 per 100000 mononuclear cells (3×) and 0 per 100000 mononuclear cells (2×) | CFU-GM numbers (HSC and HPC; Day 8): 1 per 100000 mononuclear cells (3×) and 0 per 100000 mononuclear cells (2×) | number of CFU-GEMM or CFU-GM (HSC and HPC; 5 μg/mouse s.c. daily for 4 days, day 8): no difference found | Fold increase in number of CFU-GM (HSC and HPC; Day 4): 1.9 Fold | Fold increase in number of CFU-Mix (CFU-GEMM) (HSC and HPC; Day 4, 1 hr after the last injection): 1.7 Fold | Fold increase in number of CFU-GM (HSC and HPC; Day 8): 0 Fold | Fold increase in number of CFU-Mix (CFU-GEMM) (HSC and HPC; Day 8): 0 Fold | Wound healing rate, Average [4]: 5.14% | Wound healing rate ([4]; individual mice, 5 mg/kg): 3.89% and 4.69% and 2.42% and 8.09% and 6.62%
